Data as given in US12492403B2, “Aptamers and the use thereof in the treatment of cancer” (FUNDACIÓN PARA LA INVESTIGACIÓN BIOMÉDICA DEL HOSPITAL …, priority 2018, dated 2025).

Experiments:
MNK1 = experiment: Apta-western with biotin-labeled aptamer; format: binding
Text: FIGS. 6A-6C. Characterization of the interaction of aptamer apMNKQ2 with MNK1 by means of Apta-western. Detection of MNK1a and MNK1b, as well as of the two GST-bound variants MNK1aΔ77 and MNK1ΔCt, with biotin-labeled aptamer apMNKQ2 in electrophoresis (12%) in denaturing conditions (FIG. 6A) and in native conditions (without SDS or β-mercaptoethanol) (FIG. 6B). Quantification of protein levels in relation to MNK1a (*p<0.05 with respect to 1) (FIG. 6C).
In the apta-western assays, the proteins were resolved in polyacrylamide gels in native or denaturing conditions, transferred to PVDF membranes, and incubated with aptamers and streptavidin-peroxidase as indicated above after blocking with 5% PBS-BSA. Finally, the signal was visualized with the chemiluminescence developing system (Clarity Western ECL, BioRad, USA).
On the other hand, apta-western assays were carried out to confirm the affinity of the aptamer apMNKQ2 for proteins MNK1a and MNK1b. To that end, the four constructs used in FIG. 5A were analyzed by electrophoresis, blot, and apta detection. […] This may be due to the fact that the site the aptamer recognizes may not be accessible in all the proteins when they are structured and said site may be exposed as the proteins denature. […] The result is shown in FIG. 6B and quantified in FIG. 6C.

MCF7 cells [1] = experiment: Cell viability by trypan blue exclusion; format: cell-based, human; details: MCF7, 150 nM, 24 hours after transfection, vs control aptamer AT
Description: (§1) FIG. 9. Cell viability analysis by trypan blue exclusion. MCF7, MDA-MB-231, and MDA-MB-468 cells from different experiments were collected 24 hours after transfection, diluted 1:10 in trypan blue, and counted in a TC20 counter (BioRad, USA). The boxes represent the mean±the maximum and minimum of 12-14 independent experiments (**p<0.01, and ***p<0.001 with respect to the control aptamer AT). Trypan blue exclusion. Cells (live and dead) were collected in their corresponding medium, trypan blue (Sigma-Aldrich, USA) was added, and the cells were counted using the TC20 counter (BioRad, USA). Living cells are those which exclude the dye. The results were expressed as the number of living cells/mL. The cell lines were then transfected with the previously established concentrations and the number of living cells was determined 24 hours after transfection with […]2 or with the control aptamer AT by means of trypan blue exclusion.

MDA-MB-231 cells [2] = experiment: Cell viability by trypan blue exclusion; format: cell-based, human; details: MDA-MB-231, 400 nM, 24 hours after transfection, vs control aptamer AT
Description: as §1

MDA-MB-468 cells [3] = experiment: Cell viability by trypan blue exclusion; format: cell-based, human; details: MDA-MB-468, 50 nM, 24 hours after transfection, vs control aptamer AT
Description: as §1

MCF7 cells [4] = experiment: Transwell migration assay; format: cell-based, human; details: MCF7, 150 nM, 24 hours migration
Description: (§2) FIGS. 13A, 13B and 13C. Effect of aptamer apMNKQ2 on the migration and invasion of breast cell lines. The three lines of study were seeded in 6-well plates at a density of 2.5×10^5 cells/well and transfected at 24 hours with apMNKQ2 at the established working concentrations. The cell lines were deprived of serum after 6 hours and collected and re-seeded (4×10^4 cells/well) after 24 hours in a transwell […], in order to perform migration and invasion assays, respectively. At 24 hours, the membranes of the transwell are stained with Hoechst and cells that have gone through the membranes are quantified using fluorescence microscopy (FIG. 13A). The boxes (FIGS. 13B and 13C) represent the mean±the maximum and minimum of 4-5 independent experiments (*p<0.05, **p<0.01, and ***p<0.001 with respect to the control aptamer AT).
(§3) Cell migration and invasion assays were performed using transwell (Corning, USA). The cells, previously transfected and incubated for 16 hours, were deprived of serum for 18 hours. After that time, they were collected, counted, and reseeded 4×10^4 cells in 300 μl of a serum-free complete medium inside the transwell (migration) or a transwell on which a layer of 100 μL of Matrigel (Corning, USA) (invasion) had previously been polymerized. […] Finally, two washes in PBS were performed, and 5 photographs of each membrane of the transwell were taken using a fluorescence microscope (Olympus IX70). The number of cells was analyzed using the imageJ program.
(§4) To analyze the effect of the aptamer on cell migration, experiments were carried out using transwells instead of the wound healing technique. […] At 18 hours, 40,000 cells are collected, counted, and seeded in small “baskets” in a serum-free medium, and these baskets are immersed in the well of the plate with complete serum, such that the serum acts as a chemoattractant and the cells migrate from the basket to the well, going through the membrane of the transwell. […]

MDA-MB-231 cells [5] = experiment: Transwell migration assay; format: cell-based, human; details: MDA-MB-231, 400 nM, 24 hours migration
Description: as §2, §3, §4

MDA-MB-468 cells [6] = experiment: Transwell migration assay; format: cell-based, human; details: MDA-MB-468, 50 nM, 24 hours migration
Description: as §2, §3, §4

5′TGGGGTGGGCGGGCGGGGGTGGGGGTGGT-3′ (DNA, backbone and methylation of C not given here; further chemistry not fully specified) [apMNKQ2]
recognition of MNK1a, MNK1b, MNK1aΔ77 and MNK1ΔCt (apta-western) (MNK1; denaturing conditions): capable of recognizing and binding to the four isoforms of the protein in a similar manner
recognition of MNK1a, MNK1b, MNK1aΔ77 and MNK1ΔCt (apta-western) (MNK1; native conditions (without SDS or β-mercaptoethanol)): capable of significantly differentiating MNK1b from other isoforms
total number of living cells (trypan blue exclusion) (MCF7 cells [1]): significant drop
total number of living cells (trypan blue exclusion) (MDA-MB-231 cells [2]): very slight drop
total number of living cells (trypan blue exclusion) (MDA-MB-468 cells [3]): significant drop
inhibition of migration (transwell) (MCF7 cells [4]): in a statistically significant manner
inhibition of migration (transwell) (MDA-MB-231 cells [5]): in a statistically significant manner
inhibition of migration (transwell) (MDA-MB-468 cells [6]): capable of inhibiting migration
